Target: USP7 (Homo sapiens, UniProt Q93009)
Assay: USP7 inhibitory potency (Table 1)
Type: biochemical

Chain of USP7 (Q93009 whole entry): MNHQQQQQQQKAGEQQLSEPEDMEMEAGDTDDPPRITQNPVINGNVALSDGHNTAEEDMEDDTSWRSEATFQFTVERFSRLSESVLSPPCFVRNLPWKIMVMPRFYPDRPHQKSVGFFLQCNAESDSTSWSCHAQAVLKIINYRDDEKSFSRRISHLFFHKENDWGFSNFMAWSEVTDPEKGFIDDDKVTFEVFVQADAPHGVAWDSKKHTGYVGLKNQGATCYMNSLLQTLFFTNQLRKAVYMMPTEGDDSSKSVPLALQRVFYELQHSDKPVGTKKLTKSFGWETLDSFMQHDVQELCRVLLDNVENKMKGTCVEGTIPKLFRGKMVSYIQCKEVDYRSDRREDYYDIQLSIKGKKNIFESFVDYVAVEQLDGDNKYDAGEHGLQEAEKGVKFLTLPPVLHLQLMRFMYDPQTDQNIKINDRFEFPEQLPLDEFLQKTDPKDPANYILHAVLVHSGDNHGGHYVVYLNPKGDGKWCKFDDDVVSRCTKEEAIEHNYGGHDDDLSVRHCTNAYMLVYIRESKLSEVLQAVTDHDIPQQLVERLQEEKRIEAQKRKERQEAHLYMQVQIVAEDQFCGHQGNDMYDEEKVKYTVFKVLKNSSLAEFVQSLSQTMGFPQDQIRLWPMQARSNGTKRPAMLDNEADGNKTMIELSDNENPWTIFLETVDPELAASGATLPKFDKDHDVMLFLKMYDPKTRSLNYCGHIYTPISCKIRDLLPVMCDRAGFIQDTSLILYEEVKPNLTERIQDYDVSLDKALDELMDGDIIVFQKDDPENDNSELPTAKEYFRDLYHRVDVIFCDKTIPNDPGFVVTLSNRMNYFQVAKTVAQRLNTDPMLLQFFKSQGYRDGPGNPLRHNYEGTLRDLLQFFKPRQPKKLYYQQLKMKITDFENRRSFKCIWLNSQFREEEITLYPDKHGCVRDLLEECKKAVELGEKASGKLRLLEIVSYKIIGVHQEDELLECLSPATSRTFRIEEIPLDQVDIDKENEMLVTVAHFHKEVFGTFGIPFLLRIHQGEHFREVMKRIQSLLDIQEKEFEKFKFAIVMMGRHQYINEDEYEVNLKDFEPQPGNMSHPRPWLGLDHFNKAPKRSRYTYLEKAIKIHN

Row | Compound | IC50
1 | O=C1CCC(=O)N1Cc1cc2ncnc(-c3cc(Cl)cc4c3O[C@@H](c3onc5c3CNCC5)C4)c2s1 [(R)-1-((4-(5-chloro-2-(4,5,6,7-tetrahydroisoxazolo[4,3-c]pyridin-3-yl)-2,3-dihydrobenzofuran-7-yl)thieno[3,2-d]pyrimidin-6-yl)methyl)pyrrolidine-2,5-dione] | < 1000 nM
2 | CCC(O)c1cc2nccc(-c3cc(Cl)cc4c3OC(CN3CCNCC3)C4)c2s1 (stereo not drawn) [1-(7-(5-chloro-2-(piperazin-1-ylmethyl)-2,3-dihydrobenzofuran-7-yl)thieno[3,2-b]pyridin-2-yl)propan-1-ol] | 10000 to 30000 nM
3 | Clc1cc2c(c(-c3ncnc4cc(Cl)ccc34)c1)O[C@@H](c1onc3c1CNCC3)C2 [(R)-3-(5-chloro-7-(7-chloroquinazolin-4-yl)-2,3-dihydrobenzofuran-2-yl)-4,5,6,7-tetrahydroisoxazolo[4,3-c]pyridine] | 1000 to 10000 nM
4 | CCC(O)c1cc2ncnc(-c3cc(Cl)cc4c3O[C@@H](c3ocnc3CNCC(F)(F)F)C4)c2s1 (stereo partly drawn) [1-(4-((R)-5-chloro-2-(4-(((2,2,2-trifluoroethyl)amino)methyl)oxazol-5-yl)-2,3-dihydrobenzofuran-7-yl)thieno[3,2-d]pyrimidin-6-yl)propan-1-ol] | 10000 to 30000 nM
5 | CN1CCc2noc([C@H]3Cc4cc(Cl)cc(-c5ccnc6cc(CO)sc56)c4O3)c2C1 [(R)-(7-(5-chloro-2-(5-methyl-4,5,6,7-tetrahydroisoxazolo[4,3-c]pyridin-3-yl)-2,3-dihydrobenzofuran-7-yl)thieno[3,2-b]pyridin-2-yl)methanol] | < 1000 nM
6 | CC(C)(O)C1Cc2nccc(-c3cc(Cl)cc4c3O[C@@H](c3onc5c3CNCC5)C4)c2C1 (stereo partly drawn) [2-(4-((R)-5-chloro-2-(4,5,6,7-tetrahydroisoxazolo[4,3-c]pyridin-3-yl)-2,3-dihydrobenzofuran-7-yl)-6,7-dihydro-5H-cyclopenta[b]pyridin-6-yl)propan-2-ol] | 1000 to 10000 nM
7 | Clc1cc2c(c(-c3ncnc4ccoc34)c1)O[C@@H](c1onc3c1CNCC3)C2 [(R)-3-(5-chloro-7-(furo[3,2-d]pyrimidin-4-yl)-2,3-dihydrobenzofuran-2-yl)-4,5,6,7-tetrahydroisoxazolo[4,3-c]pyridine] | < 1000 nM
8 | Cn1nc2c(c1[C@H]1Cc3cc(Cl)cc(-c4ccnc5cc(CN6C(=O)CCC6=O)sc45)c3O1)CNCC2 [(R)-1-((7-(5-chloro-2-(2-methyl-4,5,6,7-tetrahydro-2H-pyrazolo[4,3-c]pyridin-3-yl)-2,3-dihydrobenzofuran-7-yl)thieno[3,2-b]pyridin-2-yl)methyl)pyrrolidine-2,5-dione] | < 1000 nM
9 | Cc1cc(-c2cc(Cl)cc3c2O[C@@H](c2onc4c2CNCC4)C3)c2ccc(C#N)cc2n1 [(R)-4-(5-chloro-2-(4,5,6,7-tetrahydroisoxazolo[4,3-c]pyridin-3-yl)-2,3-dihydrobenzofuran-7-yl)-2-methylquinoline-7-carbonitrile] | 10000 to 30000 nM
10 | Cn1nc2c(c1[C@H]1Cc3cc(Cl)cc(-c4ncnc5ccoc45)c3O1)CNCC2 [(R)-4-(5-chloro-2-(2-methyl-4,5,6,7-tetrahydro-2H-pyrazolo[4,3-c]pyridin-3-yl)-2,3-dihydrobenzofuran-7-yl)furo[3,2-d]pyrimidine] | < 1000 nM

Continued, values first:

Row | IC50 | Compound
11 | < 1000 nM | O=C([C@H]1Cc2cc(Cl)cc(-c3ccnc4cc(CN5C(=O)COC5=O)sc34)c2O1)N1CCNCC1 [(R)-3-((7-(5-chloro-2-(piperazine-1-carbonyl)-2,3-dihydrobenzofuran-7-yl)thieno[3,2-b]pyridin-2-yl)methyl)oxazolidine-2,4-dione]
12 | < 1000 nM | CN(C)[C@@H]1CCN(C(=O)[C@H]2Cc3cc(Cl)cc(-c4ccnc5ccsc45)c3O2)C1 [((R)-5-chloro-7-(thieno[3,2-b]pyridin-7-yl)-2,3-dihydrobenzofuran-2-yl)((R)-3-(dimethylamino)pyrrolidin-1-yl)methanone]
13 | < 1000 nM | O=C([C@H]1Cc2cc(Cl)cc(-c3ccnc4cc(CCN5C(=O)c6ccccc6C5=O)sc34)c2O1)N1CCNCC1 [(R)-2-(2-(7-(5-chloro-2-(piperazine-1-carbonyl)-2,3-dihydrobenzofuran-7-yl)thieno[3,2-b]pyridin-2-yl)ethyl)isoindoline-1,3-dione]
14 | < 1000 nM | Clc1cc2c(c(-c3ccnc4ccsc34)c1)O[C@@H](c1ocnc1CN1CCC1)C2 [(R)-4-(azetidin-1-ylmethyl)-5-(5-chloro-7-(thieno[3,2-b]pyridin-7-yl)-2,3-dihydrobenzofuran-2-yl)oxazole]
15 | 10000 to 30000 nM | CNC(=O)c1cc2c(-c3cc(Cl)cc4c3OC(C(=O)N3CCNCC3)C4)ccnc2[nH]1 (stereo not drawn) [4-(5-Chloro-2-(piperazine-1-carbonyl)-2,3-dihydrobenzofuran-7-yl)-N-methyl-1H-pyrrolo[2,3-b]pyridine-2-carboxamide]
16 | < 1000 nM | CN(C)[C@@H]1CCN(C(=O)[C@H]2Cc3cc(Cl)cc(-c4ccnc5cc(CO)sc45)c3O2)C1 [((R)-5-chloro-7-(2-(hydroxymethyl)thieno[3,2-b]pyridin-7-yl)-2,3-dihydrobenzofuran-2-yl)((R)-3-(dimethylamino)pyrrolidin-1-yl)methanone]
17 | < 1000 nM | CC1CCC(=O)N1Cc1cc2nccc(-c3cc(Cl)cc4c3O[C@@H](C(=O)N3CCNCC3)C4)c2s1 (stereo partly drawn) [1-((7-((R)-5-chloro-2-(piperazine-1-carbonyl)-2,3-dihydrobenzofuran-7-yl)thieno[3,2-b]pyridin-2-yl)methyl)-5-methylpyrrolidin-2-one]
18 | < 1000 nM | O=C(C1Cc2cc(Cl)cc(-c3ccnc4[nH]ccc34)c2O1)N1CCC(O)(c2cccnc2)CC1 (stereo not drawn) [(5-chloro-7-(1H-pyrrolo[2,3-b]pyridin-4-yl)-2,3-dihydrobenzofuran-2-yl)(4-hydroxy-4-(pyridin-3-yl)piperidin-1-yl)methanone]
19 | < 1000 nM | O=C([C@H]1Cc2cc(Cl)cc(-c3ccnc4ccoc34)c2O1)N1CCNCC1 [(R)-(5-chloro-7-(furo[3,2-b]pyridin-7-yl)-2,3-dihydrobenzofuran-2-yl)(piperazin-1-yl)methanone]
20 | < 1000 nM | CC1CC(=O)N(Cc2cc3nccc(-c4cc(Cl)cc5c4O[C@@H](C(=O)N4CCNCC4)C5)c3s2)C1 (stereo partly drawn) [1-((7-((R)-5-chloro-2-(piperazine-1-carbonyl)-2,3-dihydrobenzofuran-7-yl)thieno[3,2-b]pyridin-2-yl)methyl)-4-methylpyrrolidin-2-one]
21 | < 1000 nM | O=C([C@H]1Cc2cc(Cl)cc(-c3ccnc4cc(C(O)CCl)sc34)c2O1)N1CCNCC1 (stereo partly drawn) [((2R)-5-chloro-7-(2-(2-chloro-1-hydroxyethyl)thieno[3,2-b]pyridin-7-yl)-2,3-dihydrobenzofuran-2-yl)(piperazin-1-yl)methanone]
22 | < 1000 nM | CN1CCc2noc([C@H]3Cc4cc(Cl)cc(-c5ccnc6ccsc56)c4O3)c2C1 [(R)-3-(5-chloro-7-(thieno[3,2-b]pyridin-7-yl)-2,3-dihydrobenzofuran-2-yl)-5-methyl-4,5,6,7-tetrahydroisoxazolo[4,3-c]pyridine]
23 | < 1000 nM | O=C([C@H]1Cc2cc(Cl)cc(-c3ccnc4cc(C5(O)COC5)sc34)c2O1)N1CCNCC1 [(R)-(5-chloro-7-(2-(3-hydroxyoxetan-3-yl)thieno[3,2-b]pyridin-7-yl)-2,3-dihydrobenzofuran-2-yl)(piperazin-1-yl)methanone]
24 | < 1000 nM | CNC(=O)CCc1cc2nccc(-c3cc(Cl)cc4c3O[C@@H](C(=O)N3CCNCC3)C4)c2s1 [(R)-3-(7-(5-chloro-2-(piperazine-1-carbonyl)-2,3-dihydrobenzofuran-7-yl)thieno[3,2-b]pyridin-2-yl)-N-methylpropanamide]

— patent US20210317134A1, “UBIQUITIN-SPECIFIC-PROCESSING PROTEASE 7 (USP7) MODULATORS AND USES THEREOF” (RAPT THERAPEUTICS, INC., priority 2019, published 2021)
